Results on 28 compounds are retold here after patent US10065970B2 (Genentech, Inc., priority 2015, dated 2018).

Molecules are shown by their SMILES. Counter-ions that a name gives are not always drawn.

PI3Kα (alpha), sequence (P42336 whole entry): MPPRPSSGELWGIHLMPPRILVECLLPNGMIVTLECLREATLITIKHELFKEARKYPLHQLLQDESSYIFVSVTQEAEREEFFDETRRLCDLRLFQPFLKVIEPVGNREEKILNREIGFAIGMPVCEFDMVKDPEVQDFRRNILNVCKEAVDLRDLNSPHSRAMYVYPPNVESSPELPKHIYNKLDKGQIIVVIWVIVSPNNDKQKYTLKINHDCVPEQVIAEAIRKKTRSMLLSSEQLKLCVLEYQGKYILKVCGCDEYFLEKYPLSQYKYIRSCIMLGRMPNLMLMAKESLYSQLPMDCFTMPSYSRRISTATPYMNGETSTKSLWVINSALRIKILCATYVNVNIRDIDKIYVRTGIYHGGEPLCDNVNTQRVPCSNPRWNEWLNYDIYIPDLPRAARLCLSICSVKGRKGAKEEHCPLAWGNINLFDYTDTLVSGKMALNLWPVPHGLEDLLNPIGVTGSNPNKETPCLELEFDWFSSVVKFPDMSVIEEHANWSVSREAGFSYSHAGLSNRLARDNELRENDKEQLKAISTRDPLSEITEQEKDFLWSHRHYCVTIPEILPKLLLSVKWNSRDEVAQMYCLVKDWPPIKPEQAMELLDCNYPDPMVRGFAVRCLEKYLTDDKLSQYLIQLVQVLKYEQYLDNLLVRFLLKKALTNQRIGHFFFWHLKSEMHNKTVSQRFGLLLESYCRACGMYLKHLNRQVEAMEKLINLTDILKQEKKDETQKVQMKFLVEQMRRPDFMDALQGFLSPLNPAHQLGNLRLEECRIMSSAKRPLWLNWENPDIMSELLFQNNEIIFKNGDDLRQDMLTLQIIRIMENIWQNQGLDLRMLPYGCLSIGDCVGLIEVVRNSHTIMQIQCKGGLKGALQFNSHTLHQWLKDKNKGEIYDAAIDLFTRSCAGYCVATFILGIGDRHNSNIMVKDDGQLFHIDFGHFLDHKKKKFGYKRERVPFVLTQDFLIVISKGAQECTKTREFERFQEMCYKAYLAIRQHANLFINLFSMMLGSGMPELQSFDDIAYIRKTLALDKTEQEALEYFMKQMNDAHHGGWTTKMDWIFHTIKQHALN
PI3Kα (alpha), sequence (P27986 whole entry partner): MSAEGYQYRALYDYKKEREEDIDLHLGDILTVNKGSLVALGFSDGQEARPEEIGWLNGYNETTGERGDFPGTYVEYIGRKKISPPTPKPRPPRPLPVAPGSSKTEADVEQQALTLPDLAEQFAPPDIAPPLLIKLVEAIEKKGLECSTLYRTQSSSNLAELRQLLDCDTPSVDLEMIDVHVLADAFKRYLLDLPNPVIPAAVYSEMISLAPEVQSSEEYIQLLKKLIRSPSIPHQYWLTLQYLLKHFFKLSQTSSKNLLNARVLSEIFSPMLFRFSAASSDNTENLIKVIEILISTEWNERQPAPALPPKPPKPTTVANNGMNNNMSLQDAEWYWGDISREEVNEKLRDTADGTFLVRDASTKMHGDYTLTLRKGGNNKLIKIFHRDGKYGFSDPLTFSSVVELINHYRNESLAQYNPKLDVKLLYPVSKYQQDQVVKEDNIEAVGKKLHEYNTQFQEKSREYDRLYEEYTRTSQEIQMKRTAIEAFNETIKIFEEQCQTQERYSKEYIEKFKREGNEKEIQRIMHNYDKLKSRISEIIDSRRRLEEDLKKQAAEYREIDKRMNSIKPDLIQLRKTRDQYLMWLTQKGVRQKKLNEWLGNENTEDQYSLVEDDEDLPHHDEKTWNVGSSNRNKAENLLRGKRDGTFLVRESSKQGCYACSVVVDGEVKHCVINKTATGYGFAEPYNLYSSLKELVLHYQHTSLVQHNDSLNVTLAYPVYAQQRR

The assay addresses PI3Kα (alpha) (Homo sapiens (Human), UniProt P42336). Kind of assay: p110α (alpha) PI3K Binding Assay (ADP-Glo lipid kinase reaction). The assay is classed as biochemical. Particulars: PI3K alpha 0.2 nM, ATP 40 μM, PIP2:3PS 50 μM, 120 min, room temperature; Ki by Morrison Equation; read-out: PI3Kα-(alpha) ATP (Ki) micromolar. How it is done:
The ability of a compound of the invention to act as an inhibitor of PI3Kα was determined using the methods of Example 901.
PI3K Binding assays are intended for determining the biochemical potency of small molecule PI3K inhibitors. The PI3K lipid kinase reaction is performed in the presence of PIP2:3PS lipid substrate (Promega #V1792) and ATP. Following the termination if the kinase reaction, turnover of ATP to ADP by the phosphorylation of the lipid substrate is detected using the Promega ADP-Glo™ (Promega #V1792) assay. Reactions are carried out using the following conditions:
After 120 minutes of reaction time, the kinase reaction is terminated. Any ATP remaining after the reaction is depleted, leaving only ADP. Then the Kinase Detection Reagent is added to convert ADP to ATP, which is used in a coupled luciferin/luciferase reaction. The luminescent output is measured and is correlated with kinase activity.
All reactions are carried out at room temperature. A 3 μl mixture (1:1) of enzyme/lipid substrate solution is added to a 384 well white assay plate (Perkin Elmer #6007299) containing 50 nl of test compound or DMSO only for untreated controls. The reaction is started by the addition of 2 μl ATP/MgCl2. The kinase reaction buffer contains 50 mM HEPES, 50 mM NaCl, 3 mM MgCl2, 0.01% BSA, 1% DMSO, and enzyme and substrate concentrations as indicated in the above table. The reaction is stopped by the addition of 10 μL ADP-Glo reagent. Plates are read in a Perkin Elmer Envision system using luminescence mode. 10 point dose response curves are generated for each test compound. Ki values for each compound are determined using the Morrison Equation.
On the technique in general: ADP-Glo first removes unused ATP, then detects ADP through luciferase.
As a reminder, the Ki is the equilibrium dissociation constant of an inhibitor or competing ligand from its target. With `CC[C@@H](Oc1cc2c3c(c1)nc(-c1ccc(-c4nc[nH]n4)cc1)n3CCCCO2)C(N)=O` (single isomer, unassigned) [Example 267], the Ki was determined as 1.28 nM.

Take `C[C@@H](Oc1cc2c3c(c1)nc(-c1cc4sc(N)nc4cc1F)n3CCCCO2)C(N)=O` (single isomer, unassigned) [Example 278]: the Ki was 4.6 nM.

On to `OCc1nc2cc(-c3nc4cc(Br)cc5c4n3CCCO5)ccc2o1` [Example 168, (5-(4-Bromo-8,9-dihydro-7H-6-oxa-2,9a-diazabenzo[cd]azulen-1-yl)benzo[d]oxazol-2-yl)methanol], for which the Ki is 402 nM.

With `Nc1nc2cc(-n3nc4cc(Br)cc5c4c3CCCO5)ccc2o1` [Example 253, 5-(4-Bromo-8,9-dihydrooxepino[4,3,2-cd]indazol-1(7H)-yl)benzo[d]oxazol-2-amine], the Ki was 50.8 nM.

On to `NC(=O)[C@@H]1COCCN1c1cc2c3c(c1)nc(-c1ccc4nc(N)sc4c1)n3CCCCO2` [Example 262, (S)-4-(1-(2-Aminobenzo[d]thiazol-6-yl)-7,8,9,10-tetrahydro-6-oxa-2,10a-diazacycloocta[cd]inden-4-yl)morpholine-3-carboxamide], for which the inhibitory constant (Ki) stood at 1.95 nM.

Take `COc1ccc(-c2nc3cc(N[C@H](C(N)=O)C4CC4)cc4c3n2CCCO4)cc1OC(F)F` [Example 163, (S)-2-Cyclopropyl-2-((1-(3-(difluoromethoxy)-4-methoxyphenyl)-8,9-dihydro-7H-6-oxa-2,9a-diazabenzo[cd]azulen-4-yl)amino)acetamide]: the Ki was determined as 34.2 nM.

As to `CNc1nc2cc(-c3nc4cc(N[C@@H](C)C(N)=O)cc5c4n3CCCO5)ccc2o1` [Example 185, (S)-2-((1-(2-(Methylamino)benzo[d]oxazol-5-yl)-8,9-dihydro-7H-6-oxa-2,9a-diazabenzo[cd]azulen-4-yl)amino)propanamide], the Ki is 2.01 nM.

For `NC(=O)[C@@H](Nc1cc2c3c(c1)nc(N1CCc4nccnc4C1)n3CCCO2)C1CC1` [Example 179, (S)-2-Cyclopropyl-2-((1-(7,8-dihydropyrido[3,4-b]pyrazin-6(5H)-yl)-8,9-dihydro-7H-6-oxa-2,9a-diazabenzo[cd]azulen-4-yl)amino)acetamide], the Ki turned out to be 154 nM.

Turning to `C[C@@H]1Cn2c(-c3ccc4oc(N)nc4c3)nc3cc(O[C@@H](C)C(N)=O)cc(c32)O1` [Example 252, (S)-2-(((R)-2-(2-Aminobenzo[d]oxazol-5-yl)-4-methyl-3,4-dihydro-5-oxa-1,2a-diazaacenaphthylen-7-yl)oxy)propanamide], the Ki stood at 0.221 nM.

Regarding `NC(=O)[C@@H](Nc1cc2c3c(c1)nc(-c1cncnc1)n3CCCO2)C1CC1` [Example 134, (S)-2-Cyclopropyl-2-((1-(pyrimidin-5-yl)-8,9-dihydro-7H-6-oxa-2,9a-diazabenzo[cd]azulen-4-yl)amino)acetamide], the Ki was 242 nM.

As for `C[C@@H](C(N)=O)N(C)c1cc2c3c(c1)nc(-c1cc(F)c4oc(N)nc4c1)n3CCCCO2` [Example 264, (S)-2-((1-(2-Amino-7-fluorobenzo[d]oxazol-5-yl)-7,8,9,10-tetrahydro-6-oxa-2,10a-diazacycloocta[cd]inden-4-yl)(methyl)amino)propanamide], the Ki is under 0.02 nM.

In the case of `NC(=O)c1cc(-c2nc3cc(N[C@H](C(N)=O)C4CC4)cc4c3n2CCCO4)ccn1` [Example 151, (S)-4-(4-((2-Amino-1-cyclopropyl-2-oxoethyl)amino)-8,9-dihydro-7H-6-oxa-2,9a-diazabenzo[cd]azulen-1-yl)picolinamide], the Ki was determined as 10.2 nM.

In the case of `COc1ccc(-c2nc3cc(N[C@H](C(N)=O)C4CC4)cc4c3n2CCCO4)cc1C(N)=O` [Example 164, (S)-5-(4-((2-Amino-1-cyclopropyl-2-oxoethyl)amino)-8,9-dihydro-7H-6-oxa-2,9a-diazabenzo[cd]azulen-1-yl)-2-methoxybenzamide], the Ki is 160 nM.

In the case of `C[C@H](Oc1cc2c3c(c1)nc(-c1cc(F)c4oc(N)nc4c1)n3CCCCO2)C(N)=O` [Example 249, (S)-2-((1-(2-Amino-7-fluorobenzo[d]oxazol-5-yl)-7,8,9,10-tetrahydro-6-oxa-2,10a-diazacycloocta[cd]inden-4-yl)oxy)propanamide], the Ki is under 0.02 nM.

Regarding `C[C@@H]1Cn2c(-c3ccc4oc(N)nc4c3)nc3cc(O[C@H](C)C(N)=O)cc(c32)O1` [Example 251, (R)-2-(((R)-2-(2-Aminobenzo[d]oxazol-5-yl)-4-methyl-3,4-dihydro-5-oxa-1,2a-diazaacenaphthylen-7-yl)oxy)propanamide], the Ki turned out to be 2.27 nM.

Consider `NC(=O)[C@@H](Nc1cc2c3c(c1)nc(-c1cnc4c(c1)OCCO4)n3CCCO2)C1CC1` [Example 148, (S)-2-Cyclopropyl-2-((1-(2,3-dihydro-[1,4]dioxino[2,3-b]pyridin-7-yl)-8,9-dihydro-7H-6-oxa-2,9a-diazabenzo[cd]azulen-4-yl)amino)acetamide], for which the Ki worked out at 59 nM.

In the case of `NC(=O)[C@@H](Nc1cc2c3c(c1)nc(-c1cc(F)c4nccnc4c1)n3CCCO2)C1CC1` [Example 215, (S)-2-Cyclopropyl-2-((1-(8-fluoroquinoxalin-6-yl)-8,9-dihydro-7H-6-oxa-2,9a-diazabenzo[cd]azulen-4-yl)amino)acetamide], the Ki is 0.424 nM.

For the compound `CC(C)(C(N)=O)n1cc(-c2nc3cc(N[C@H](C(N)=O)C4CC4)cc4c3n2CCCO4)cn1` [Example 181, 2-(4-{4-[((S)-Carbamoylcyclopropylmethyl)amino]-8,9-dihydro-7H-6-oxa-2,9a-diazabenzo[cd]azulen-1-yl}pyrazol-1-yl)isobutyramide formic acid salt], the Ki was 195 nM.

For `CS(=O)(=O)c1cncc(-c2nc3cc(N[C@H](C(N)=O)C4CC4)cc4c3n2CCCO4)c1` [Example 175, (S)-2-Cyclopropyl-2-((1-(5-(methylsulfonyl)pyridin-3-yl)-8,9-dihydro-7H-6-oxa-2,9a-diazabenzo[cd]azulen-4-yl)amino)acetamide], the Ki was found to be 26 nM.

With `NC(=O)[C@@H](C1CC1)n1cc(-c2cc3c4c(c2)nc(-c2ccc5oc(N)nc5c2)n4CCCO3)cn1` (single isomer, unassigned) [Example 231], the Ki stood at 0.437 nM.

As for `NC(=O)[C@@H](Nc1cc2c3c(c1)nc(-c1ccnc4c1OCO4)n3CCCO2)C1CC1` [Example 195, (S)-2-((1-([1,3]Dioxolo[4,5-b]pyridin-7-yl)-8,9-dihydro-7H-6-oxa-2,9a-diazabenzo[cd]azulen-4-yl)amino)-2-cyclopropylacetamide], the Ki amounted to 194 nM.

In the case of `C[C@H](Nc1cc2c3c(c1)nc(-c1ccccn1)n3CCCO2)C(N)=O` [Example 112, (S)-2-((1-(Pyridin-2-yl)-8,9-dihydro-7H-6-oxa-2,9a-diazabenzo[cd]azulen-4-yl)amino)propanamide], the Ki came to 160 nM.

`CCc1cc(-c2nc3cc(N[C@H](C(N)=O)C4CC4)cc4c3n2CCCO4)cc2nc(N)oc12` [Example 225, (S)-2-((1-(2-Amino-7-ethylbenzo[d]oxazol-5-yl)-8,9-dihydro-7H-6-oxa-2,9a-diazabenzo[cd]azulen-4-yl)amino)-2-cyclopropylacetamide]: the Ki was determined as 0.431 nM.

On to `CNc1nc2cc(-c3nc4cc(N5CCC[C@H]5C(N)=O)cc5c4n3CCCO5)ccc2o1` [Example 186, (S)-1-(1-(2-(methylamino)benzo-[d]oxazol-5-yl)-8,9-dihydro-7H-6-oxa-2,9a-diazabenzo[cd]azulen-4-yl)pyrrolidine-2-carboxamide], for which the Ki was found to be 6.93 nM.

On to `NC(=O)[C@@H](Nc1cc2c3c(c1)nc(N1Cc4cnc(N)nc4C1)n3CCCO2)C1CC1` [Example 149, (S)-2-((1-(2-Amino-5H-pyrrolo[3,4-d]pyrimidin-6(7H)-yl)-8,9-dihydro-7H-6-oxa-2,9a-diazabenzo[cd]azulen-4-yl)amino)-2-cyclopropylacetamide], for which the Ki was determined as 18.2 nM.

Regarding `NC(=O)[C@@H](Nc1cc2c3c(c1)nc(-c1cc(C(F)(F)F)c4oc(N)nc4c1)n3CCCO2)C1CC1` [Example 235, (S)-2-((1-(2-Amino-7-(trifluoromethyl)benzo[d]oxazol-5-yl)-8,9-dihydro-7H-6-oxa-2,9a-diazabenzo[cd]azulen-4-yl)amino)-2-cyclopropylacetamide], the Ki came to 0.209 nM.

In the case of `COc1ccc(-n2nc3cc(N[C@H](C(N)=O)C4CC4)cc4c3c2CCCO4)cn1` [Example 213, (S)-2-Cyclopropyl-2-((1-(6-methoxypyridin-3-yl)-1,7,8,9-tetrahydrooxepino[4,3,2-cd]indazol-4-yl)amino)acetamide], the Ki worked out at 23.8 nM.

Consider `NC(=O)[C@@H](Nc1cc2c3c(c1)nc(-c1ccn4ncnc4n1)n3CCCO2)C1CC1` [Example 156, (S)-2-((1-([1,2,4]triazolo[1,5-a]pyrimidin-5-yl)-8,9-dihydro-7H-6-oxa-2,9a-diazabenzo[cd]azulen-4-yl)amino)-2-cyclopropylacetamide], for which the Ki is 0.264 nM.
